Assay results published in US20250228239A1, “MOLECULES HAVING PESTICIDAL UTILITY, AND INTERMEDIATES, COMPOSITIONS, AND PROCESSES, RELATED THERETO” (priority 2024, published 2025).

What was measured:
Type in all cases: in vivo
[1] = tested on: Beet Armyworm (Spodoptera exigua, LAPHEG); assay: Bioassays on Beet Armyworm (BAW), 128-well diet tray assay; settings: Spodoptera exigua; Beet Armyworm, Table ABC / ABC-DP rating; read-out: BAW rating
Procedure, shortened: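 One to five second-instar larvae per well on artificial diet surface-treated with 50 μg/cm^2 test molecule (applied in 90:10 acetone-water, dried), eight wells per compound. Trays held vented at 25° C., 14:10 light-dark for five to seven days; percent mortality averaged over the eight wells.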

[2] = tested on: Cabbage Looper (Trichoplusia ni, TRIPNI); assay: Bioassays on Cabbage Looper (CL), 128-well diet tray assay; settings: Trichoplusia ni; Cabbage Looper, Table ABC / ABC-DP rating; read-out: CL rating
Procedure, shortened: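 Activity is mean percent mortality over eight wells of second-instar larvae exposed to diet treated at 50 μg/cm^2 for 5–7 days at 25° C.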

[3] = tested on: Yellow Fever Mosquito (Aedes aegypti, AEDSAE); settings: Yellow Fever Mosquito, Table ABC / ABC-DP rating
Procedure, shortened: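 Rating-scale grades reflect larval mortality scored per well after 3 days at room temperature under non-evaporative lids. Larvae (~1 day old, hatched overnight in liver-powder water) were added to six daughter plates per compound, prepared from a 4000 ppm DMSO stock diluted in 90:10 water/acetone.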

| SMILES | pest or weed control at 50 µg/cm2 [1] [%] | pest or weed control at 50 µg/cm2 [2] [%] | YFM rating [3] |
| --- | --- | --- | --- |
| CCC(F)(F)CNC(=O)c1cc(NC(=O)[C@H]2[C@H](c3cc(Cl)cc(Cl)c3)C2(Cl)Cl)cc(F)c1Cl (relative stereo) [F2088, trans-2-Chloro-5-(2,2-dichloro-3-(3,5-dichlorophenyl)cyclopropane-1-carboxamido)-N-(2,2-difluorobutyl)-3-fluorobenzamide] | 50 to 100 | 50 to 100 | B (More than 0 – Less than 80) |
| CCOC(=O)C(F)(F)CNC(=O)c1cc(NC(=O)[C@H]2[C@H](c3cc(Cl)cc(Cl)c3)C2(Cl)Cl)cc(F)c1Cl (relative stereo) [F2089, trans-Ethyl 3-(2-chloro-5-(2,2-dichloro-3-(3,5-dichlorophenyl)cyclopropane-1-carboxamido)-3-fluorobenzamido)-2,2-difluoropropanoate] | 50 to 100 | 50 to 100 | A (80–100) |
| CC(=O)CNC(=O)c1cc(NC(=O)[C@H]2[C@H](c3cc(Cl)cc(Cl)c3)C2(Cl)Cl)cc(F)c1Cl (relative stereo) [F2090, trans-2-Chloro-5-(2,2-dichloro-3-(3,5-dichlorophenyl)cyclopropane-1-carboxamido)-3-fluoro-N-(2-oxopropyl)benzamide] | 50 to 100 | 50 to 100 | A (80–100) |
| O=C(NCC(F)(F)c1ccccc1)c1cc(NC(=O)[C@H]2[C@H](c3cc(Cl)cc(Cl)c3)C2(Cl)Cl)cc(F)c1Cl (relative stereo) [F2091, trans-2-Chloro-5-(2,2-dichloro-3-(3,5-dichlorophenyl)cyclopropane-1-carboxamido)-N-(2,2-difluoro-2-phenylethyl)-3-fluorobenzamide] | 50 to 100 | 50 to 100 | A (80–100) |
| O=C(CCNC(=O)c1cc(NC(=O)[C@H]2[C@H](c3cc(Cl)cc(Cl)c3)C2(Cl)Cl)ccc1Cl)NCCC(F)(F)F (relative stereo) [F2092, trans-2-Chloro-5-(2,2-dichloro-3-(3,5-dichlorophenyl)cyclopropane-1-carboxamido)-N-(3-oxo-3-(3,3,3-trifluoropropylamino)propyl)benzamide] | 50 to 100 | 50 to 100 | B (More than 0 – Less than 80) |
| O=C(CCCNC(=O)c1cc(NC(=O)[C@H]2[C@H](c3cc(Cl)cc(Cl)c3)C2(Cl)Cl)ccc1Cl)NCCC(F)(F)F (relative stereo) [F2093, trans-2-Chloro-5-(2,2-dichloro-3-(3,5-dichlorophenyl)cyclopropanecarboxamido)-N-(4-oxo-4-(3,3,3-trifluoropropylamino)butyl)benzamide] | 50 to 100 | 50 to 100 | B (More than 0 – Less than 80) |
| O=C(NCCCNC(=O)C(F)(F)F)c1cc(NC(=O)[C@H]2[C@H](c3cc(Cl)cc(Cl)c3)C2(Cl)Cl)ccc1Cl (relative stereo) [F2094, trans-2-Chloro-5-(2,2-dichloro-3-(3,5-dichlorophenyl)cyclopropane-1-carboxamido)-N-(3-(2,2,2-trifluoroacetamido)propyl)benzamide] | 50 to 100 | 50 to 100 | B (More than 0 – Less than 80) |
| O=C(NCCCCNC(=O)C(F)(F)F)c1cc(NC(=O)[C@H]2[C@H](c3cc(Cl)cc(Cl)c3)C2(Cl)Cl)ccc1Cl (relative stereo) [F2095, trans-2-Chloro-5-(2,2-dichloro-3-(3,5-dichlorophenyl)cyclopropane-1-carboxamido)-N-(4-(2,2,2-trifluoroacetamido)butyl)benzamide] | 50 to 100 | 50 to 100 | A (80–100) |
